Converted amounts (≈) assume the structure as drawn.

As a reminder, the LC50 is the concentration that kills 50% of the test population. Low readings indicate a more lethal substance, high ones a less lethal substance.

The nature of this data set: Toxicity in Artemia salina after 24 hrs. It counts as organism-based. As to conditions: in vivo.

`C=C[C@@H](O)C#CC#C[C@@H](O)/C=C\CCCCCCC` [FALCARINDIOL] came in with an LC50 at 24 h of 3.32 µg/mL (≈ 12.8 µM).

In turn, `C=C[C@H](O)C#CC#CC/C=C\CCCCCCC` [FALCARINOL] gave an LC50 at 24 h of 0.67 µg/mL (≈ 2.74 µM). This LC50 at 24 h is about 5-fold lower than that of the compound before.

`COc1cc(C=O)ccc1OC/C=C(\C)CCC=C(C)C` [GERANYLOXYVANILLIN] had an LC50 at 24 h of 85.8 µg/mL (≈ 298 µM).

The values above are taken from ChEMBL document CHEMBL1147372, “Bioactive metabolites from Sicilian marine fennel, Crithmum maritimum” (J Nat Prod, 1993).
